How the values were obtained:
[1] = test system: xenograft models of human non-small cell lung cancer (NSCLC), colon cancer, breast cancer, melanoma, and glioblastoma; conditions: including models resistant to taxanes or other microtubule-active compounds; cited from earlier work
Solubility of the salt = format: physicochemical

| SMILES | antitumor activity [1] | solubility (Solubility of the salt) |
| --- | --- | --- |
| CNCCCOc1cc(F)c(-c2c(Cl)nc3ncnn3c2N[C@@H](C)C(F)(F)F)c(F)c1 [Compound Ia, 5-chloro-6-{2,6-difluoro-4-[3-(methylamino)propoxy]phenyl}-N-[(1S)-2,2,2-trifluoro-1-methylethyl][1,2,4]triazolo[1,5-a]pyrimidin-7-amine] | broad antitumor activity | – |
| CNCCCOc1cc(F)c(-c2c(Cl)nc3ncnn3c2N[C@@H](C)C(F)(F)F)c(F)c1.O=C(O)CCC(=O)O [succinate dihydrate salt of Compound Ia] | – | reasonable solubility |

— patent US20070149552A1, “Lyophilized compositions of a triazolopyrimidine compound” (Wyeth, priority 2005, published 2007)
